# From US20230143751A1, “Aromatic Compound And Use Thereof In Preparing Antineoplastic Drugs” (Shanghai Zheye Biotechnology Co. Ltd., priority 2020, published 2023)
# Read-outs that look alike come from different tables or passages of the source.
# How the values were obtained:
# Format in all cases: cell-based
# NCI-H358 = experiment: Cell proliferation inhibitory activity on NCI-H358, 3D model test (agarose colony formation); conditions: for IC50: Homo sapiens, NCI-H358, 3D agarose colony formation, NBT staining; for anti-cell proliferation activity against KRAS G12C mutant type cells NCI-H358 (in words): 3D model test
# Protocol: 100 μl of agarose gel with a high concentration was spread in a 96-well plate as the bottom agarose gel layer. Agarose with a low concentration and growth medium containing cells were mixed and then spread on the bottom agar layer, cooled and solidified, then incubated overnight at 37° C. Mother solutions were prepared from the test compounds by using DMSO, and then subjected to gradient elution with RPMI 1640 growth medium. The solutions of test compounds with different concentrations after gradient elution were added to the 96-well plate comprising an upper layer of agar gel-cells. Solvent control well was set up and the plate was incubated in a CO2 incubator. The drug-containing medium was changed during the incubation period and the cell growth situation was observed. After the incubation, the cells were stained with NBT and the number of cell colony formation was counted, and the IC50 values of the compounds inhibiting cell proliferation were derived.
# MIA PaCa-2 cells = experiment: Cell proliferation activity of MIA PaCa-2 by CellTiter-Glo reagent; conditions: 72 h, CellTiter-Glo; for IC50: Homo sapiens, MIA PaCa-2, read-out: IC50 value of cell proliferation inhibitory activity of the compound on MIA PaCa-2
# Protocol: (§1) MIA PaCa-2 cells in exponential growth phase were digested with trypsin-EDTA, plated in a 96-well plate with 2000-3000 cells per well, and incubated overnight at 37° C. with 5% CO2. Mother solutions were prepared from the test compounds by using DMSO, subjected to gradient elution with DMEM growth medium, and then added into the 96-well plate and incubated in an incubator for 72 h at 37° C. with 5% CO2. After the incubation, CellTiter-Glo test reagent with an equal volume was added into each well and the obtained 96-well plate was incubated after shaking. The chemiluminescence values were determined by microplate reader, and the IC50 values of the test compounds inhibiting the proliferation of MIA PaCa-2 cells were fitted and calculated by GraphPad Prism software.
# The test method of inhibitory activity was the same as that in Test 2 in “Biological Tests” part.
# NCI-H358 cells = experiment: Cell proliferation activity of NCI-H358 by CellTiter-Glo reagent; conditions: for IC50: read-out: IC50 value of cell proliferation inhibitory activity of NCI-H358
# Protocol: as §1, with “NCI-H358” for “MIA PaCa-2”, “Mother solutions were prepared from the test compounds by using DMSO, subjected to gradient elution with DMEM growth medium, and then added into the 96-well plate and incubated in an incubator for 72 h at 37° C. with 5% CO2.” left out
# The test method of inhibitory activity was the same as that in Test 3 in “Biological Tests” part.
# [1] = Homo sapiens, NCI-H358, test 4, method of test 3
# [2] = Homo sapiens, NCI-H358, 72 h, 72 h, CellTiter-Glo, test 3
IC50 (NCI-H358) [nM],IC50 (MIA PaCa-2 cells) [nM],Compound,"anti-cell proliferation activity against KRAS G12C mutant type cells NCI-H358 (in words) (NCI-H358 cells; 72 h, CellTiter-Glo)",also measured
< 50,< 50,[2H]C([2H])([2H])c1ccnc(C(C)C)c1-n1c(=O)nc(N2CCN(C(=O)C=C)C[C@@H]2C)c2cc(F)c(-c3ccccc3C=C)nc21 [Compound 4-23],–,–
–,–,C=CC(=O)N1CCN(c2nc(=O)n(-c3c(CC)ccnc3C(C)C)c3nc(-c4ccccc4C=C)c(Cl)cc23)[C@@H](C)C1 [Compound 3-4MIS],–,"IC50 (NCI-H358 cells; 72 h, CellTiter-Glo, test 3): < 50 nM"
–,–,[2H]C([2H])=Cc1cccc(F)c1-c1nc2c(cc1Cl)c(N1[C@@H](C)CN(C(=[18O])C=C)C[C@@H]1C)nc(=O)n2-c1c(C)ccnc1C(C)C [Compound 3-11MIS],significant anti-cell proliferation activity,IC50 (NCI-H358 cells; [1]): < 50 nM
< 50,–,[2H]C([2H])=Cc1cccc(F)c1-c1nc2c(cc1F)c(N1CCN(C(=O)C(=C)F)C[C@@H]1C)nc(=O)n2-c1c(C)ccnc1C(C)C [Compound 3-27],–,–
< 50,< 50,[2H]C([2H])=Cc1cccc(F)c1-c1nc2c(cc1F)c(N1CCN(C(=O)C=C)C[C@@H]1C)nc(=O)n2-c1c(C(C)C)ccnc1C(C)C [Compound 5-3],–,–
–,–,[2H][C@]1(C)CN(C(=O)C=C)CCN1c1nc(=O)n(-c2c(C)ccnc2C(C)C)c2nc(-c3c(F)cccc3C=C)c(Cl)cc12 [Compound 3-49],significant anti-cell proliferation activity,IC50 (NCI-H358 cells; [2]): < 50 nM
–,–,C=CC(=[18O])N1C[C@H](C)N(c2nc(=O)n(-c3c(C)ccnc3C(C)C)c3nc(-c4ccccc4C=C)c(Cl)cc23)[C@@H](C)C1 [Compound 3-3MIS],significant anti-cell proliferation activity,IC50 (NCI-H358 cells; [1]): < 50 nM
< 50,–,[2H]C([2H])=Cc1ccccc1-c1nc2c(cc1F)c(N1CCN(C(=O)C(=C)F)C[C@@H]1C)nc(=O)n2-c1c(C([2H])([2H])[2H])ccnc1C(C)C [Compound 4-16],–,–
–,–,[2H]C([2H])=Cc1ccccc1-c1nc2c(cc1Cl)c(N1CCN(C(=O)C=C)C[C@@H]1C)nc(=O)n2-c1c(C)ccnc1C(C)C [Compound 3-16M],significant anti-cell proliferation activity,IC50 (NCI-H358 cells; [2]): < 50 nM; cell proliferation inhibitory activity on NCI-H358 compared with the corresponding compound with axial chiral S configuration (in words) (NCI-H358 cells; NCI-H358): significantly better
< 50,–,[2H]C([2H])=Cc1cccc(F)c1-c1nc2c(cc1F)c(N1[C@@H](C)CN(C(=O)C(=C)F)C[C@@H]1C)nc(=O)n2-c1c(C([2H])([2H])[2H])ccnc1C(C)C [Compound 4-9],–,–
< 50,< 50,C=CC(=O)N1CCN(c2nc(=O)n(-c3c(C(C)C)ccnc3C(C)C)c3nc(-c4ccccc4C=C)c(Cl)cc23)[C@@H](C)C1 [Compound 5-24],–,–
< 50,< 50,[2H]C([2H])=Cc1cccc(F)c1-c1nc2c(cc1F)c(N1CCN(C(=O)C=C)C[C@@H]1C)nc(=O)n2-c1c(C)ccnc1C(C)C [Compound 3-19],–,anti-cell proliferation activity against KRAS G12C mutant type cells NCI-H358 (in words) (NCI-H358): significant anti-cell proliferation activity; anti-cell proliferation activity against KRAS G12C mutant type cells MIA PaCa-2 (in words) (MIA PaCa-2 cells): significant anti-cell proliferation activity
–,–,C=CC(=O)N1CCN(c2nc(=O)n(-c3c(C)ccnc3C(C)C)c3nc(-c4c(F)cccc4C=C)c(Cl)cc23)[C@@H](C)C1 [Example 3-12P],–,"IC50 (NCI-H358 cells; 72 h, CellTiter-Glo, test 3): > 50 nM"
< 50,< 50,C=CC(=O)N1CCN(c2nc(=O)n(-c3c(C)ccnc3C(C)C)c3nc(-c4c(F)cccc4C=C)c(F)cc23)[C@@H](C)C1 [Compound 3-5],–,anti-cell proliferation activity against KRAS G12C mutant type cells NCI-H358 (in words) (NCI-H358): significant anti-cell proliferation activity; anti-cell proliferation activity against KRAS G12C mutant type cells MIA PaCa-2 (in words) (MIA PaCa-2 cells): significant anti-cell proliferation activity
< 50,–,[2H]C([2H])=Cc1cccc(F)c1-c1nc2c(cc1F)c(N1[C@@H](C)CN(C(=O)C(=C)F)C[C@@H]1C)nc(=O)n2-c1c(C)ccnc1C(C)C [Compound 3-25],–,–
–,–,C=CC(=[18O])N1CCN(c2nc(=O)n(-c3c(CC)ccnc3C(C)C)c3nc(-c4c(F)cccc4C=C)c(Cl)cc23)[C@@H](C)C1 [Compound 3-8MIS],significant anti-cell proliferation activity,IC50 (NCI-H358 cells; [1]): < 50 nM
